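Here, GI50 denotes the concentration required for 50% inhibition of growth. TGI denotes the concentration required for complete inhibition of growth.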
Experiments:
Assay in all cases: NCI anticancer screen, dose series, 384-well format
[1] = system: M14 melanoma
[2] = system: CCRF-CEM leukemia
[3] = system: KM12 colon
[4] = system: SK-OV-3 ovarian
[5] = system: BT-549 breast
[6] = system: SW-620 colon
[7] = system: IGROV1 ovarian
[8] = system: SF-539 CNS
[9] = system: CAKI-1 renal
[10] = system: NCI-H226 lung
[11] = system: RXF 393 renal
[12] = system: SNB-75 CNS
[13] = system: HCT-116 colon
[14] = system: T-47D breast
[15] = system: NCI-H322M lung
[16] = system: NCI-H460 NSCLC
[17] = system: HL-60(TB) leukemia
[18] = system: NCI/ADR-RES ovarian
[19] = system: HCC-2998 colon
[20] = system: U251 glioblastoma
[21] = system: UACC-257 melanoma
[22] = system: ACHN renal
[23] = system: TK-10 renal
[24] = system: SF-295 CNS
[25] = system: SF-268 CNS
[26] = system: K-562 leukemia
[27] = system: MDA-MB-468 breast
[28] = system: MOLT-4 leukemia
[29] = system: HOP-92 NSCLC
[30] = system: OVCAR-3 ovarian
[31] = system: HCT-15 colon
[32] = system: MALME-3M melanoma
[33] = system: EKVX NSCLC
[34] = system: RPMI-8226 leukemia
[35] = system: MCF7 breast
[36] = system: OVCAR-4 ovarian
[37] = system: A549 NSCLC
[38] = system: HOP-62 NSCLC
[39] = system: NCI-H23 lung
[40] = system: UO-31 renal
[41] = system: OVCAR-8 ovarian
[42] = system: OVCAR-5 ovarian
[43] = system: MDA-MB-435 melanoma
[44] = system: UACC-62 melanoma
[45] = system: SK-MEL-5 melanoma
[46] = system: HT29 colon
[47] = system: COLO 205 colon
[48] = system: DU-145 prostate
[49] = system: HS 578T breast
[50] = system: 786-0 renal
[51] = system: LOX IMVI melanoma
[52] = system: PC-3 prostate

COc1ncc(-c2ccc3nccc(-c4ccnnc4)c3c2)cc1NS(=O)(=O)c1ccc(F)cc1F
GI50 [1]: < 0.01 µM | TGI [1]: 1.07 µM | GI50 [2]: < 0.01 µM | TGI [2]: < 0.01 µM | GI50 [3]: 0.0219 µM | TGI [3]: 2.19 µM | GI50 [4]: < 0.01 µM | TGI [4]: 0.0513 µM | GI50 [5]: < 0.01 µM | TGI [5]: 0.0483 µM | GI50 [6]: 0.0354 µM | TGI [6]: 1.5 µM | GI50 [7]: < 0.01 µM | TGI [7]: < 0.01 µM | GI50 [8]: 0.0138 µM | TGI [8]: 0.103 µM | GI50 [9]: < 0.01 µM | TGI [9]: 0.106 µM | GI50 [10]: 0.0185 µM | TGI [10]: 2.4 µM | GI50 [11]: < 0.01 µM | TGI [11]: 0.0253 µM | GI50 [12]: < 0.01 µM | TGI [12]: 0.0142 µM | GI50 [13]: 0.0133 µM | TGI [13]: 1.17 µM | GI50 [14]: < 0.01 µM | TGI [14]: < 0.01 µM | GI50 [15]: 0.0111 µM | TGI [15]: 0.723 µM | GI50 [16]: < 0.01 µM | TGI [16]: 0.0515 µM | GI50 [17]: < 0.01 µM | TGI [17]: 0.0107 µM | GI50 [18]: 0.043 µM | TGI [18]: 1.65 µM | GI50 [19]: 0.0143 µM | TGI [19]: 0.912 µM | GI50 [20]: 0.0211 µM | TGI [20]: 1.27 µM | GI50 [21]: 0.0133 µM | TGI [21]: 0.0873 µM | GI50 [22]: < 0.01 µM | TGI [22]: > 100 µM | GI50 [23]: < 0.01 µM | TGI [23]: 0.251 µM | GI50 [24]: < 0.01 µM | TGI [24]: 0.0541 µM | GI50 [25]: < 0.01 µM | TGI [25]: < 0.01 µM | GI50 [26]: 0.0442 µM | TGI [26]: 12.5 µM | GI50 [27]: < 0.01 µM | TGI [27]: 0.0117 µM | GI50 [28]: < 0.01 µM | TGI [28]: < 0.01 µM | GI50 [29]: < 0.01 µM | TGI [29]: 0.046 µM | GI50 [30]: < 0.01 µM | TGI [30]: 0.11 µM | GI50 [31]: < 0.01 µM | TGI [31]: 2.96 µM | GI50 [32]: < 0.01 µM | TGI [32]: 0.0264 µM | GI50 [33]: < 0.01 µM | TGI [33]: 0.098 µM | GI50 [34]: 0.0155 µM | TGI [34]: 0.0544 µM | GI50 [35]: < 0.01 µM | TGI [35]: 73.4 µM | GI50 [36]: 0.0252 µM | TGI [36]: 0.48 µM | GI50 [37]: < 0.01 µM | TGI [37]: 0.101 µM | GI50 [38]: 0.0257 µM | TGI [38]: 0.635 µM | GI50 [39]: < 0.01 µM | TGI [39]: 2.52 µM | GI50 [40]: < 0.01 µM | TGI [40]: 0.137 µM | GI50 [41]: 0.0234 µM | TGI [41]: 1.85 µM | GI50 [42]: < 0.01 µM | TGI [42]: 1.13 µM | GI50 [43]: 0.0182 µM | TGI [43]: 1.13 µM | GI50 [44]: < 0.01 µM | TGI [44]: 0.0333 µM | GI50 [45]: < 0.01 µM | TGI [45]: 0.0436 µM | GI50 [46]: < 0.01 µM | TGI [46]: 1.41 µM | GI50 [47]: < 0.01 µM | TGI [47]: 0.125 µM | GI50 [48]: 0.0214 µM | TGI [48]: > 100 µM | GI50 [49]: < 0.01 µM | TGI [49]: 0.0173 µM | GI50 [50]: 0.0171 µM | TGI [50]: 0.276 µM | GI50 [51]: 0.0123 µM | TGI [51]: 0.135 µM | GI50 [52]: < 0.01 µM | TGI [52]: 0.0976 µM

Source: PubChem BioAssay (NCI)
